What follows are compounds tested against NS5B polymerase (Hepatitis C virus genotype 1b, UniProt P26663) (assay: biochemical). Settings: not given.
Method: Compounds were tested for HCV polymerase inhibition. Assays were performed in a 96-well streptavidin-coated FlashPlate using 20 nM enzyme, 0.5 μCi of [α-^33P]GTP, 0.6 μM GTP, and 250 nM 5′biotinylated oligo (rG13)/poly rC in 20 mM Tris-HCl, pH 7.5, 5 mM MgCl2, 5 mM dithiothreitol, 0.1 g/L bovine serum albumin, and 100 U/mL RNAse inhibitor. The reaction was stopped by aspiration after 75 min at 28° C. and the plate was washed several times. After washing and drying the plate, incorporated radioactivity was counted using a Microbeta scintillation counter. IC50 values were calculated relative to the uninhibited control and inhibition data were fitted to a 4-parameter IC50 equation.

Sequence of NS5B polymerase (P26663 2420-3010): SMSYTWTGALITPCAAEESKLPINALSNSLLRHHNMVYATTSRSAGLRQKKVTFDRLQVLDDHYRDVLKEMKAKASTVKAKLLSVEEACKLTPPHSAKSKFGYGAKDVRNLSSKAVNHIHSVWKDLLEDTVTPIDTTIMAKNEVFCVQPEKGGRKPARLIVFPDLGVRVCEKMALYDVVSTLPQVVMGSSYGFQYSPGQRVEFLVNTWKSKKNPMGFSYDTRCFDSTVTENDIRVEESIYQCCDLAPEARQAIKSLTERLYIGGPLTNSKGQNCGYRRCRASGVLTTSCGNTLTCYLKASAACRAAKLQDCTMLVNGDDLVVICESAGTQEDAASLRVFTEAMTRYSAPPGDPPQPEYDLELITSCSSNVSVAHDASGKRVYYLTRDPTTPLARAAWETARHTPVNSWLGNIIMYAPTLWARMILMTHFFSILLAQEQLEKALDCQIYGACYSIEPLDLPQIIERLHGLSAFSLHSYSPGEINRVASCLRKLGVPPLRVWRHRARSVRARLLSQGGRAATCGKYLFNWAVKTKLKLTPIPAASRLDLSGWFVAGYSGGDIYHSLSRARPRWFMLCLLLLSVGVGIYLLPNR

Q: With `CS(=O)(=O)Nc1ccc2c(c1)S(=O)(=O)N=C(C1=C(O)[C@@H]3[C@@H]4CC[C@@H](C4)[C@@H]3N(Cc3ccc(F)cc3)C1=O)N2` [Example 4, N-{3-[(1S,2S,7R,8R)-3-(4-Fluoro-benzyl)-6-hydroxy-4-oxo-3-aza-tricyclo[6.2.1.0^2,7]undec-5-en-5-yl]-1,1-dioxo-1,4-dihydro-1λ^6-benzo[1,2,4]thiadiazin-7-yl}-methanesulfonamide] as the compound, how does the IC50 read?
A: The IC50 was less than 0.02 µM.

Q: Which IC50 does the source give for `CS(=O)(=O)Nc1ccc2c(c1)S(=O)(=O)N=C(C1=C(O)[C@H]3[C@H]4CC[C@H](C4)[C@H]3N(Cc3ccc(F)cc3)C1=O)N2` [Example 5, N-{3-[(1R,2R,7S,8S)-3-(4-Fluoro-benzyl)-6-hydroxy-4-oxo-3-aza-tricyclo[6.2.1.0^2,7]undec-5-en-5-yl]-1,1-dioxo-1,4-dihydro-1λ^6-benzo[1,2,4]thiadiazin-7-yl}-methanesulfonamide] here?
A: The IC50 was 0.1 to 1 µM.

Q: `CS(=O)(=O)Nc1ccc2c(c1)S(=O)(=O)N=C(C1=C(O)[C@@H]3[C@H]4CC[C@H](C4)[C@@H]3N(Cc3ccc(F)cc3)C1=O)N2` [Example 6, N-{3-[(1R,2S,7R,8S)-3-(4-Fluoro-benzyl)-6-hydroxy-4-oxo-3-aza-tricyclo[6.2.1.0^2,7]undec-5-en-5-yl]-1,1-dioxo-1,4-dihydro-1λ^6-benzo[1,2,4]thiadiazin-7-yl}-methanesulfonamide] was tested. Which IC50 did it give?
A: Its IC50 is less than 0.02 µM.

Q: For `CS(=O)(=O)Nc1ccc2c(c1)S(=O)(=O)N=C(C1=C(O)[C@H]3[C@@H]4CC[C@@H](C4)[C@H]3N(Cc3ccc(F)cc3)C1=O)N2` [Example 7, N-{3-[(1S,2R,7S,8R)-3-(4-Fluoro-benzyl)-6-hydroxy-4-oxo-3-aza-tricyclo[6.2.1.0^2,7]undec-5-en-5-yl]-1,1-dioxo-1,4-dihydro-1λ^6-benzo[1,2,4]thiadiazin-7-yl}-methanesulfonamide], which IC50 is on record?
A: Its IC50 is 0.1 to 1 µM.

Same assay, conditions: NS5B polymerase inhibition; 20 nM enzyme, 75 min at 28° C.; read-out: IC50

Q: Which IC50 does the source give for `CS(=O)(=O)Nc1ccc2c(c1)S(=O)(=O)N=C(C1=C(O)C3C4CCC(O4)C3N(C3CCCC3)C1=O)N2` (racemic) [Example 48, (rac-di-exo)-N-[3-(3-Cyclopentyl-6-hydroxy-4-oxo-11-oxa-3-aza-tricyclo[6.2.1.0^2,7]undec-5-en-5-yl)-1,1-dioxo-1,4-dihydro-1λ^6-benzo[1,2,4]thiadiazin-7-yl]-methanesulfonamide] here?
A: The IC50 was 0.02 to 0.1 µM.

Q: How did the IC50 turn out when `CS(=O)(=O)Nc1ccc2c(c1)S(=O)(=O)N=C(C1=C(O)[C@H]3[C@H]4CC[C@H]([C@@H]5C[C@@H]54)[C@H]3N(Cc3ccc(F)cc3)C1=O)N2` (racemic) [Example 51, rac-N-{3-[(1R,2R,7S,8S,9S,11R)-3-[(4-Fluorophenyl)methyl]-6-hydroxy-4-oxo-3-azatetracyclo[6.3.2.0^2,7.0^9,11]tridec-5-en-5-yl]-1,1-dioxo-4H-1λ^6,2,4-benzothiadiazin-7-yl}methanesulfonamide] was run?
A: Its IC50 is 0.02 to 0.1 µM.

Q: With `CS(=O)(=O)Nc1ccc2c(c1)S(=O)(=O)N=C(C1=C(O)C3C4CCC(C5CC54)C3N(Cc3ccc(F)cc3)C1=O)N2` (racemic) [Example 52] as the compound, how does the IC50 read?
A: The IC50 was 0.02 to 0.1 µM.

Q: With `CC(C)CCN1C(=O)C(C2=NS(=O)(=O)c3cc(N(C)S(C)(=O)=O)ccc3N2)=C(O)C2C3CCC(O3)C21` (racemic) [Example 59, (rac-di-exo)-N-{3-[6-Hydroxy-3-(3-methyl-butyl)-4-oxo-11-oxa-3-aza-tricyclo[6.2.1.0^2,7]undec-5-en-5-yl]-1,1-dioxo-1,4-dihydro-1λ^6-benzo[1,2,4]thiadiazin-7-yl}-N-methyl-methanesulfonamide] as the compound, how does the IC50 read?
A: The IC50 was 0.1 to 1 µM.

Q: With `CS(=O)(=O)Nc1ccc2c(c1)S(=O)(=O)N=C(C1=C(O)C3C(C4CC(O)[C@H]3C4)N(Cc3ccc(F)cc3)C1=O)N2` (stereo in doubt) [Example 67, N-{3-[(1R,2S,7R,8S)-3-(4-Fluoro-benzyl)-6,9-dihydroxy-4-oxo-3-aza-tricyclo[6.2.1.0^2,7]undec-5-en-5-yl]-1,1-dioxo-1,4-dihydro-1λ^6-benzo[1,2,4]thiadiazin-7-yl}-methanesulfonamide] as the compound, how does the IC50 read?
A: The IC50 was less than 0.02 µM.
